Drawing on US20200068890A1 (Person to Whom the Inventor is Obligated to Assign, priority 2017, published 2020), this text covers IC50 for 32 compounds.

In this test the test system is T1, A. thaliana DHDPS.
T1 construct: AtDHDPS|10|0.00008; no borders, domain or tags given
Kind of test: DHDPS-DHDPR coupled assay, dose response inhibitor assay. Type of test: biochemical, Arabidopsis thaliana. On the procedure:
DHDPS enzyme activity was determined using the coupled assay in a Cary 4000 UV/Vis spectrophotometer at 340 nm in 1 cm acrylic cuvettes. A master mix was prepared for each reaction as per Table 1. Reaction mixtures containing enzymes, pyruvate, buffer and NADPH were incubated at 30° C. for 12 mins before the addition of ASA to initiate the reaction. The oxidation of NADPH to NADP^+ was then monitored at 340 nm at 30° C. as a function of time. The initial rate (ΔA340·min^−1) was calculated from the slope of the linear portion of the A340 versus time profile. All experiments were carried out in triplicate. The enzyme kinetic parameters, including KM values, were determined using the Michaelis-Menten equation (Equation 1). Unless otherwise stated, all kinetic data were fitted using the built-in equations in GraphPad Prism.
To determine/C50 values for the inhibitors, A. thaliana DHDPS enzyme activity was measured using the coupled assay (detailed above) in the presence of increasing concentrations of inhibitor. The initial rate was then plotted as a function of the log 10 of the inhibitor concentration and the/C50 determined according to Equation 2.
As to `O=C(O)CN1C(=O)S/C(=C\c2ccccc2)C1=O` [Compound 2, (Z)-2-(5-Benzylidene-2,4-dioxothiazolidin-3-yl)acetic Acid], it took 80.1 µM to reach half-maximal inhibition (IC50). Turning to `COc1cccc(/C=C2\SC(=O)N(CC(=O)O)C2=O)c1` [Compound 4, (Z)-2-(5-(3-Methoxybenzylidene)-2,4-dioxothiazolidin-3-yl)acetic Acid], the IC50 – broadly, the midpoint of a concentration-inhibition curve – worked out at 110 µM. In the case of `O=C(O)CN1C(=O)S/C(=C\c2ccccc2Cl)C1=O` [Compound 6, (Z)-2-(5-(2-Chlorobenzylidene)-2,4-dioxothiazolidin-3-yl)acetic Acid], the concentration for half-maximal inhibition (IC50) was determined as 137 µM.

For `O=C(O)CN1C(=O)S/C(=C\c2cccc(Cl)c2)C1=O` [Compound 7, (Z)-2-(5-(3-Chlorobenzylidene)-2,4-dioxothiazolidin-3-yl)acetic Acid], half-maximal inhibition (IC50) required 121 µM. The figure for `O=C(O)CN1C(=O)S/C(=C\c2ccc(Cl)cc2)C1=O` [Compound 8, (Z)-2-(5-(4-Chlorobenzylidene)-2,4-dioxothiazolidin-3-yl)acetic Acid] is 84.3 µM; for `O=C(O)CN1C(=O)S/C(=C\c2ccc(Br)cc2)C1=O` [Compound 9, (Z)-2-(5-(4-Bromobenzylidene)-2,4-dioxothiazolidin-3-yl)acetic Acid] it is 74 µM. The figure for `Cc1ccc(/C=C2\SC(=O)N(CC(=O)O)C2=O)cc1` [Compound 10, (Z)-2-(5-(4-Methylbenzylidene)-2,4-dioxothiazolidin-3-yl)acetic Acid] is 80.1 µM. In turn, `Nc1ccc(/C=C2\SC(=O)N(CC(=O)O)C2=O)cc1` [Compound 11, (Z)-2-(5-(4-Aminobenzylidene)-2,4-dioxothiazolidin-3-yl)acetic Acid] returned an IC50 of 153 µM.

As for `O=C(O)CN1C(=O)S/C(=C\c2ccc(O)cc2)C1=O` [Compound 12, (Z)-2-(5-(4-Hydroxybenzylidene)-2,4-dioxothiazolidin-3-yl)acetic Acid], the midpoint of inhibition, the IC50, lay at 103 µM. In turn, `O=C(O)CN1C(=O)S/C(=C\c2ccc(O)c(Cl)c2)C1=O` [Compound 13, (Z)-2-(5-(3-Chloro-4-hydroxybenzylidene)-2,4-dioxothiazolidin-3-yl)acetic Acid] came in with an IC50 of 316 µM.

Compound `O=C(O)CN1C(=O)S/C(=C\c2ccccc2O)C1=O` [Compound 14, (Z)-2-(5-(2-Hydroxybenzylidene)-2,4-dioxothiazolidin-3-yl)acetic Acid] displayed an IC50 of 79.7 µM. With `O=C(O)CN1C(=O)S/C(=C\c2cc([N+](=O)[O-])ccc2O)C1=O` [Compound 15, (Z)-2-(5-(2-Hydroxy-5-nitrobenzylidene)-2,4-dioxothiazolidin-3-yl)acetic Acid] the figure was 152 µM; with `COc1cccc(/C=C2\SC(=O)N(CC(=O)O)C2=O)c1O` [Compound 16, (Z)-2-(5-(2-Hydroxy-3-methoxybenzylidene)-2,4-dioxothiazolidin-3-yl)acetic Acid], 127 µM. For the compound `COc1ccc(/C=C2\SC(=O)N(CC(=O)O)C2=O)c(OC)c1` [Compound 17, (Z)-2-(5-(2,4-Dimethoxybenzylidene)-2,4-dioxothiazolidin-3-yl)acetic Acid], the IC50 was 173 µM. The figure for `O=C1NC(=O)/C(=C/c2ccccc2O)S1` [Compound 19, (Z)-5-(2-Hydroxybenzylidene)thiazolidine-2,4-dione] is 125 µM; for `CC(=O)Nc1ccc(/C=C2\SC(=O)N(CC(=O)O)C2=O)cc1` [Compound 20, (Z)-2-(5-(4-Acetamidobenzylidene)-2,4-dioxothiazolidin-3-yl)acetic Acid] it is 68.4 µM. The compound `O=C(O)CN1C(=O)S/C(=C\c2ccc(O)cc2O)C1=O` [Compound 21, 2-(5-(2,4-Dihydroxybenzylidene)-2,4-dioxothiazolidin-3-yl)acetic Acid] registered an IC50 of 162 µM. The figure for `COc1cccc(/C=C2\SC(=O)N(CC(=O)O)C2=O)c1OC` [Compound 22, 2-(5-(2,3-Dimethoxybenzylidene)-2,4-dioxothiazolidin-3-yl) acetic Acid] is 108 µM; for `COc1ccc(/C=C2\SC(=O)N(CC(=O)O)C2=O)cc1OC` [Compound 23, 2-(5-(3,4-Dimethoxybenzylidene)-2,4-dioxothiazolidin-3-yl)acetic Acid] it is 116 µM; for `N#Cc1ccc(/C=C2\SC(=O)N(CC(=O)O)C2=O)cc1` [Compound 24, (Z)-2-(5-(4-Cyanobenzylidene)-2,4-dioxothiazolidin-3-yl)acetic Acid] it is 79.6 µM. The figure for `O=C(O)CN1C(=O)S/C(=C\c2ccc(C(=O)O)cc2)C1=O` [Compound 25, (Z)-4-((3-(Carboxymethyl)-2,4-dioxothiazolidin-5-ylidene)methyl)benzoic Acid] is 69.8 µM; for `CCOc1ccc(/C=C2\SC(=O)N(CC(=O)O)C2=O)cc1` [Compound 26, (Z)-2-(5-(4-Ethoxybenzylidene)-2,4-dioxothiazolidin-3-yl)acetic Acid] it is 71.6 µM. The figure for `O=C(O)CN1C(=O)S/C(=C\c2ccc(OC(F)(F)F)cc2)C1=O` [Compound 27, (Z)-2-(2,4-Dioxo-5-(4-(trifluoromethoxy)benzylidene)thiazolidin-3-yl)acetic Acid] is 97.8 µM.

As for `CSc1ccc(/C=C2\SC(=O)N(CC(=O)O)C2=O)cc1` [Compound 28, (Z)-2-(5-(4-(Methylthio)benzylidene)-2,4-dioxothiazolidin-3-yl)acetic Acid], the IC50 stood at 125 µM. The figure for `O=C(O)CN1C(=O)S/C(=C\c2ccc(C(F)(F)F)cc2)C1=O` [Compound 29, (Z)-2-(2,4-Dioxo-5-(4-(trifluoromethyl)benzylidene)thiazolidin-3-yl)acetic Acid] is 122 µM; for `O=C(O)CN1C(=O)S/C(=C\c2cccs2)C1=O` [Compound 30, (Z)-2-(2,4-Dioxo-5-(thiophen-2-ylmethylene)thiazolidin-3-yl)acetic Acid] it is 71.6 µM; for `O=C(O)CN1C(=O)S/C(=C\c2ccsc2)C1=O` [Compound 31, (Z)-2-(2,4-Dioxo-5-(thiophen-3-ylmethylene)thiazolidin-3-yl)acetic Acid] it is 81.8 µM. `O=C(O)CN1C(=O)S/C(=C\c2c[nH]cn2)C1=O` [Compound 32, (Z)-2-(5-((1H-Imidazol-4-yl)methylene)-2,4-dioxothiazolidin-3-yl)acetic Acid] returned an IC50 of 94 µM. With `CN(C)c1ccc(/C=C2\SC(=O)N(CC(=O)O)C2=O)cc1` [Compound 33, (Z)-2-(5-(4-(Dimethylamino)benzylidene)-2,4-dioxothiazolidin-3-yl)acetic Acid] the figure was more than 500 µM. With `O=C(O)CN1C(=O)S/C(=C\c2ccccn2)C1=O` [Compound 34, (Z)-2-(2,4-Dioxo-5-(pyridin-2-ylmethylene)thiazolidin-3-yl)acetic Acid] the figure was 80.4 µM; with `O=C(O)CN1C(=O)S/C(=C\c2cccnc2)C1=O` [Compound 35, (Z)-2-(2,4-Dioxo-5-(pyridin-3-ylmethylene)thiazolidin-3-yl)acetic Acid], 138 µM.

In turn, `O=C(O)CN1C(=O)S/C(=C\c2ccncc2)C1=O` [Compound 36, (Z)-2-(2,4-Dioxo-5-(pyridin-4-ylmethylene)thiazolidin-3-yl)acetic Acid] displayed an IC50 of 90.2 µM.
